From patent US9890147B2 (BAYER PHARMA AKTIENGESELLSCHAFT, priority 2012, dated 2018) come the findings set out here.

As usually defined, the IC50 is the concentration needed to halve the response being measured. Lower therefore signals greater potency.

In one assay the target is T1, BRD4 (BD1) (Homo sapiens, UniProt O60885).
T1 construct: with relatively long constructs also being possible, preferably amino acids 44-168; made in house; host or cells: E. coli
In words: Binding assay BRD4/acetylated peptide H4 (TR-FRET protein-protein interaction assay). Summed up: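 His6-BRD4 BD1 (aa 67-152, E. coli), usually 10 nM, with biotinylated tetra-acetylated H4 peptide in HEPES pH 7.5 buffer; 11 compound concentrations 0.1 nM–20 μM in duplicate, 10 min preincubation, 1 h at 22 °C then ≥3 h at 4 °C. TR-FRET 665/620 ratio; IC50 by 4-parameter fit.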
(In TR-FRET formats the signal depends on donor and acceptor labels being close together.)

The next assay relates to MOLM-13 cells. In words: Cell proliferation assay (alamarBlue), MOLM-13. In kind it is cell-based. The note with it: Homo sapiens, 96 hours incubation, inhibition of cell proliferation. Summed up:
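Cells in RPMI1640/10% FCS read by alamarBlue fluorescence (ex 530, em 590 nm) after overnight 37 °C incubation, then treated at 1E-5 to 1E-8 M for 96 h. Pre-treatment values subtracted from endpoint values and compared with buffer-only wells; IC50 is 50% proliferation inhibition.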

The subject of a further assay is MV4-11 cells. Put plainly: Cell proliferation assay (alamarBlue), MV4-11. It counts as cell-based. As to conditions: Homo sapiens, 72 hours incubation, inhibition of cell proliferation. In short, it runs like this:
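Cells seeded at 5000/well in RPMI1640 + 10% FCS, incubated overnight at 37° C, then treated with compound (1E-5 to 1E-8 M) for 72 h at 37° C. Viability by alamarBlue fluorescence (ex 530/em 590 nm); pre-treatment readings subtracted, IC50 derived versus buffer-treated cells.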

For the next assay, the system named is B16F10 cells. In words: Cell proliferation assay (alamarBlue), B16F10. In kind it is cell-based. The note with it: Mus musculus, B16-F10, 96 hours incubation, inhibition of cell proliferation. In short, it runs like this: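 alamarBlue fluorescence (ex 530/em 590 nm) read after overnight seeding at 300-500 cells/well in DMEM + 10% FCS, then after 96 h at 37 °C with compound at 1E-8 to 1E-5 M. Baseline subtracted from endpoint, compared with buffer-treated cells; IC50 = concentration giving 50% proliferation inhibition.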
(The colour change of resazurin is a common sign of viable cells or microbes.)

Another assay deals with LOX-IMVI cells. Put plainly: Cell proliferation assay (alamarBlue), LOX-IMVI. In kind it is cell-based. The note with it: Homo sapiens, 72 hours incubation, inhibition of cell proliferation. Summed up:
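Cells seeded at 1000/well in RPMI1640 with 10% FCS, incubated overnight at 37° C, then treated with dilutions from 1E-5 to 1E-8 M for 72 h. Viability read by alamarBlue fluorescence (ex 530/em 590 nm); pre-treatment values subtracted and compared with buffer-only cells to derive IC50.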

In the next assay the test system is MOLP-8 cells. Put plainly: Cell proliferation assay (alamarBlue), MOLP-8. In kind it is cell-based. As to conditions: Homo sapiens, 120 hours incubation, inhibition of cell proliferation. In short, it runs like this: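 MOLP-8 cells in RPMI1640 with 20% FCS, 4000 cells/well, treated overnight after seeding with substance at 1E-5 to 1E-8 M for 120 h at 37° C. Viability read by alamarBlue fluorescence (ex 530, em 590); pre-treatment values subtracted, compared with buffer-only cells to derive IC50.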

The test system of the next assay is KMS-12-PE cells. In words: Cell proliferation assay (alamarBlue), KMS-12-PE. It counts as cell-based. The note with it: Homo sapiens, 120 hours incubation, inhibition of cell proliferation. Summed up:
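KMS-12-PE myeloma cells in RPMI1640 with 20% FCS were exposed to compound (1E-5 to 1E-8 M) for 120 h at 37° C. AlamarBlue fluorescence (ex 530, em 590 nm) read before and after treatment; the difference versus buffer-treated cells gave IC50.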

In another assay the test system is LAPC-4 cells. Put plainly: Cell proliferation assay (alamarBlue), LAPC-4. In kind it is cell-based. As to conditions: Homo sapiens, LAPC4; inhibition of cell proliferation, LAPC-4 (prostate cancer), 1 nM methyltrienolone, 168 hours. As for the experimental part:
(§1) In accordance with the invention, the capability of the substances to inhibit cell proliferation was determined Cell viability was determined using the alamarBlue® reagent (Invitrogen) in a Victor X3 Multilabel Reader (Perkin Elmer). The excitation wavelength was 530 nm and the emission wavelenth […].
The LAPC-4 cells (ATCC, PTA-1441TM) were sown at a concentration of 4000 cells/well in 100 μl growth medium (RPMI1640, 2 mM L-glutamine, 10% cFCS) on 96-well microtitre plates. A day later, the LAPC-4 cells were treated with 1 nM methyltrienolone and various substance dilutions.
(§2) After an overnight incubation at 37° C., the fluorescence values (CI values) were determined. The plates were then treated with various substance dilutions (1E-5 M, 3E-6 M, 1E-6M, 3E-7 M, 1E-7 M, 3E-8 M, 1E-8 M) and incubated at 37° C. for 72 (MV4-11-, LOX-IMVI cells), 96 (MOLM-13-, B16F10-, MDA-MB-431-, Caov-3 cells), 120 (MOLP-8-, KMS-12-PE cells) or 168 (LAPC-4 cells) hours. The fluorescence values (CO values) were then determined. For the data analysis, the CI values were subtracted from the CO values and the results were compared between cells treated with different dilutions of the substance or with buffer solution only. These were used to calculate the IC 50 values (substance concentration required for 50% inhibition of cell proliferation).

The test system of the next assay is MDA-MB-231 cells. In words: Cell proliferation assay (alamarBlue), MDA-MB-231. In kind it is cell-based. The note with it: Homo sapiens; inhibition of cell proliferation, MDA-MB-231 (breast carcinoma), 96 hours. The procedure:
as §1
The MDA-MB-231 cells (DSMZ, ACC 732) were sown at a concentration of 4000 cells/well in 100 μl growth medium (DMEM/Ham's F12 medium, 10% FCS) on 96-well microtitre plates. The Caov-3 cells (ATCC, HTB-75) were sown at a concentration of 2000 cells/well in 100 μl growth medium (MEM Earle's medium, 10% FCS) on 96-well microtitre plates.
as §2

The test system of a further assay is Caov-3 cells. In words: Cell proliferation assay (alamarBlue), Caov-3. It counts as cell-based. As to conditions: Homo sapiens; inhibition of cell proliferation, Caov-3 (ovarian carcinoma), 96 hours. Summed up: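 Caov-3 (MEM Earle's, 10% FCS, 2000 cells/well) and MDA-MB-231 (DMEM/Ham's F12, 10% FCS, 4000 cells/well) were treated after overnight attachment with 1E-5 to 1E-8 M compound. Caov-3 exposure was 96 h. alamarBlue fluorescence (ex 530, em 590 nm) was read after background subtraction of day-0 values, and IC50 calculated versus buffer-treated cells.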

In the case of `CNC(=O)N1N=C(c2ccc(-c3c(C)noc3C)cc2)c2cc(OC)c(OC)cc2CC1C` (racemic) [Example 2, (±)-1-[4-(3,5-Dimethyl-4-isoxazolyl)phenyl]-7,8-dimethoxy-N,4-dimethyl-4,5-dihydro-3H-2,3-benzodiazepine-3-carboxamide], the 50% inhibitory concentration (IC50) stood at 80 nM on BRD4 (BD1); 170 nM in the assay with MOLM-13 cells; 110 nM with MV4-11 cells; 180 nM with B16F10 cells; 430 nM with LOX-IMVI cells; 120 nM in the assay on MOLP-8 cells. Also, the IC50 with KMS-12-PE cells came to 90 nM; in the assay with LAPC-4 cells, 240 nM; in the assay with MDA-MB-231 cells, 310 nM; in the assay on Caov-3 cells, 310 nM.

As for `CNC(=O)N1N=C(c2ccc(-c3cc[nH]n3)cc2)c2cc(OC)c(OC)cc2CC1C` (racemic) [Example 3, (±)-7,8-Dimethoxy-N,4-dimethyl-1-[4-(1H-pyrazol-3-yl)phenyl]-4,5-dihydro-3H-2,3-benzodiazepine-3-carboxamide], the IC50 was determined as 50 nM on BRD4 (BD1); 240 nM in the assay on MOLM-13 cells; 260 nM with MV4-11 cells; 110 nM in the assay with B16F10 cells; 950 nM in the assay with LOX-IMVI cells; 280 nM in the assay on MOLP-8 cells. The IC50 in the assay on KMS-12-PE cells was found to be 230 nM; with LAPC-4 cells, 110 nM; in the assay on MDA-MB-231 cells, 210 nM; with Caov-3 cells, 550 nM.

Take `CNC(=O)N1N=C(c2ccc(-c3cccnc3Cl)cc2)c2cc(OC)c(OC)cc2CC1C` (racemic) [Example 4, (±)-1-[4-(2-chloropyridin-3-yl)phenyl]-7,8-dimethoxy-N,4-dimethyl-4,5-dihydro-3H-2,3-benzodiazepine-3-carboxamide]: the IC50 at BRD4 (BD1) stood at 80 nM; with MOLM-13 cells it was 190 nM; with MV4-11 cells, 120 nM; in the assay with B16F10 cells, 110 nM; in the assay on LOX-IMVI cells, 450 nM; in the assay on MOLP-8 cells, 170 nM. In addition, the half-maximal inhibitory concentration (IC50) in the assay on KMS-12-PE cells is 110 nM; in the assay on LAPC-4 cells it was 90 nM; with MDA-MB-231 cells, 170 nM; in the assay on Caov-3 cells, 320 nM.

With `CNC(=O)N1N=C(c2ccc(N3CCOCC3)cc2)c2cc(OC)c(OC)cc2CC1C` (racemic) [Example 7, (±)-7,8-Dimethoxy-N,4-dimethyl-1-[4-(morpholin-4-yl)phenyl]-4,5-dihydro-3H-2,3-benzodiazepine-3-carboxamide], the IC50 on BRD4 (BD1) came to 30 nM; in the assay on MOLM-13 cells, 200 nM; in the assay with MV4-11 cells, 170 nM; in the assay with B16F10 cells, 140 nM; in the assay on LOX-IMVI cells, 570 nM; in the assay on MOLP-8 cells, 120 nM. Moreover, the IC50 in the assay with KMS-12-PE cells stood at 90 nM; in the assay on LAPC-4 cells, 90 nM; with MDA-MB-231 cells it was 250 nM; in the assay on Caov-3 cells, 400 nM.

In the case of `CNC(=O)N1N=C(c2ccc(Cl)cc2)c2cc(OC(F)(F)F)ccc2C[C@@H]1C` [Example 1.1, (4S)-1-(4-Chlorophenyl)-N,4-dimethyl-8-(trifluoromethoxy)-4,5-dihydro-3H-2,3-benzodiazepine-3-carboxamide], the IC50 was 60 nM on BRD4 (BD1); 390 nM in the assay with MOLM-13 cells; 390 nM in the assay with B16F10 cells; 510 nM with MOLP-8 cells; 600 nM with LAPC-4 cells; 530 nM in the assay on MDA-MB-231 cells.

On to `CNC(=O)N1N=C(c2ccc(-c3c(C)noc3C)cc2)c2cc(OC)c(OC)cc2C[C@@H]1C` [Example 2.2, (4S)-1-[4-(3,5-Dimethyl-4-isoxazolyl)phenyl]-7,8-dimethoxy-N,4-dimethyl-4,5-dihydro-3H-2,3-benzodiazepine-3-carboxamide], for which the IC50 was found to be 60 nM on BRD4 (BD1); 130 nM with MOLM-13 cells; 100 nM in the assay with MV4-11 cells; 110 nM in the assay on B16F10 cells; 330 nM in the assay on LOX-IMVI cells; 120 nM in the assay with MOLP-8 cells. Also, the IC50 with KMS-12-PE cells worked out at 110 nM; in the assay with LAPC-4 cells, 90 nM; in the assay with MDA-MB-231 cells it was 200 nM; with Caov-3 cells, 250 nM.

Turning to `CNC(=O)N1N=C(c2ccc(-c3c(C)nn(C)c3C)cc2)c2cc(OC)ccc2C[C@@H]1C` [Example 22, (4S)-8-methoxy-N,4-dimethyl-1-[4-(1,3,5-trimethyl-1H-pyrazol-4-yl)phenyl]-4,5-dihydro-3H-2,3-benzodiazepine-3-carboxamide], the IC50 on BRD4 (BD1) was 30 nM; in the assay with MOLM-13 cells, 80 nM; in the assay on MV4-11 cells, 880 nM; in the assay with B16F10 cells it was 100 nM; in the assay on LOX-IMVI cells it was 240 nM; in the assay on MOLP-8 cells, 90 nM. Further, the half-maximal inhibitory concentration (IC50) stood at 110 nM in the assay on KMS-12-PE cells, 60 nM in the assay with LAPC-4 cells, 150 nM with MDA-MB-231 cells and 110 nM in the assay with Caov-3 cells.

As to `CNC(=O)N1N=C(c2ccc(N3CCOCC3=O)cc2)c2cc(OC)c(OC)cc2C[C@@H]1C` [Example 40.1, (4S)-7,8-dimethoxy-N,4-dimethyl-1-[4-(3-oxomorpholin-4-yl)phenyl]-4,5-dihydro-3H-2,3-benzodiazepine-3-carboxamide], the IC50 on BRD4 (BD1) was found to be 120 nM; in the assay on MOLM-13 cells, 960 nM; in the assay with MV4-11 cells, 760 nM; with B16F10 cells it was 790 nM; with LOX-IMVI cells it was 330 nM; with MOLP-8 cells it was 590 nM. The half-maximal inhibitory concentration (IC50) in the assay on KMS-12-PE cells was determined as 80 nM; with LAPC-4 cells it was 290 nM; in the assay with MDA-MB-231 cells, 1280 nM.

Turning to `CNC(=O)N1N=C(c2ccc(N3CCN(C)CC3)cc2)c2cc(OC)c(OC)cc2C[C@@H]1C` [Example 127.1, (4S)-7,8-Dimethoxy-N,4-dimethyl-1-[4-(4-methylpiperazin-1-yl)phenyl]-4,5-dihydro-3H-2,3-benzodiazepine-3-carboxamide], the IC50 at BRD4 (BD1) worked out at 50 nM; in the assay on MOLM-13 cells, 110 nM; in the assay with MV4-11 cells it was 70 nM; in the assay on B16F10 cells it was 100 nM; in the assay on LOX-IMVI cells it was 290 nM; in the assay with MOLP-8 cells it was 60 nM. The IC50 in the assay with KMS-12-PE cells amounted to 90 nM; in the assay on LAPC-4 cells, 40 nM; in the assay with MDA-MB-231 cells it was 130 nM; with Caov-3 cells, 170 nM.
